Experimental data published in US20210100872A1, “Pharmacological Formulation Comprising Cyclo (HIS-PRO) As Effective Ingredient For Preventing Or Treating Diabetes Mellitus” (Novmetapharma Co., Ltd., priority 2017, published 2021).

Legend:
Type in all cases: in vivo, human
[1] = test system: patients with type 2 diabetes mellitus; assay: Change in concentration of HbA1c, 12-week clinical trial; details: for concentration of HbA1c, Average / concentration of HbA1c, Change Value, Average: capsule once a day; for concentration of HbA1c, Change Value, Average: From Week 0 to Week 12
Procedure: (§1) We conducted a clinical trial designed as randomized, placebo-controlled, double-blind, and two-way crossover on drug interaction in patients with type 2 diabetes mellitus. The clinical trial was conducted for 149 patients over a total of 16 weeks, in which the screening period was 2 weeks, the treatment period was 12 weeks, and the period of the evaluation of safety and follow-up was 2 weeks.
(§2) In the screening stage, 64 subjects were selected from 149 participants, and the subjects who met the selection criteria were fasted for 2 hours before and after breakfast each day and subjected to a 2-week evaluation process of measuring and recording blood glucose levels. In the treatment stage, capsules containing placebo or CHP with different doses were randomly administered to 64 selected subjects once a day for 12 consecutive weeks.
(§3) In the above experiment, a capsule containing CHP (cyclo-hispro) with a different dose or a placebo corresponding thereto was used, and each subject received a two-week dose (18 capsules =14 +4) at one visit and was instructed to take 1 capsule before bedtime every day. In this case, the anti-diabetic drugs and other prescribed drugs currently being used were continuously taken. Each subject was assigned at the same rate as follows and administered with a placebo or a compound with a different dose, respectively. • Administration Group A: 3 mg of CHP+23 mg of zinc—16 subjects • Administration Group B: 9 mg of CHP+23 mg of zinc—16 subjects • Administration Group C: 15 mg of CHP+23 mg of zinc—16 subjects • Administration Group D: placebo (control)—16 subjects
The present inventors observed the change in concentration of HbA1c during the 12-week dosing period. Since the blood glucose level measured at one time point can change due to various factors, the change in glycated hemoglobin (HbA1c) was checked for the purpose of determining the pattern of long-term glycemic control, and the results are shown in Table 1 and FIG. 1.

[2] = Change in body weight, 12-week clinical trial
Procedure: as §1, §2
(§4) In the above experiment, a capsule containing CHP (cyclo-hispro) with a different dose or a placebo corresponding thereto was used, and each subject received a two-week dose (18 capsules =14 +4) at one visit and was instructed to take 1 capsule before bedtime every day. In this case, the anti-diabetic drugs and other prescribed drugs currently being used were continuously taken. […]

[3] = Body mass index (BMI), 12-week clinical trial; details: capsule once a day, From Week 0 to Week 12
Procedure: as §1, §2, §3
The present inventors confirmed the improvement of body mass index (BMI) and the improvement of leptin resistance, and the results are shown in Tables 3 and 4.

[4] = test system: patients with type 2 diabetes mellitus; assay: Plasma leptin level (leptin resistance), 12-week clinical trial; details: Administration Group A: 3 mg of CHP+23 mg of zinc, capsule once a day; From Week 0 to Week 12
Procedure: as §1, §2, §4

[5] = Administration Group A: 3 mg of CHP+23 mg of zinc
[6] = Administration Group B: 9 mg of CHP+23 mg of zinc
[7] = Administration Group C: 15 mg of CHP+23 mg of zinc

## O=C1NC(Cc2c[nH]cn2)C(=O)N2CCCC12 (centres unmarked) [CHP, cyclo(his-pro)]
[1]; Administration Group A: 3 mg of CHP+23 mg of zinc, Baseline (Week 0)
  concentration of HbA1c, Average: 8.25%
[1]; [5]
  concentration of HbA1c, Change Value, Average: −0.21%
[1]; Administration Group B: 9 mg of CHP+23 mg of zinc, Baseline (Week 0)
  concentration of HbA1c, Average: 8.06%
[1]; [6]
  concentration of HbA1c, Change Value, Average: −0.17%
[1]; Administration Group C: 15 mg of CHP+23 mg of zinc, Baseline (Week 0)
  concentration of HbA1c, Average: 8.49%
[1]; [7]
  concentration of HbA1c, Change Value, Average: −0.43%
[1]; Administration Group C: 15 mg of CHP+23 mg of zinc, Week 12
  concentration of HbA1c, Average: 8.08%
[1]; Administration Group C: 15 mg of CHP+23 mg of zinc, week 0 to week 12
  level of HbA1c over time (FIG. 1): reduced consistently until week 8, and then there was little change in the level of HbA1c between week 8 and week 12
[2]; Administration Group A: 3 mg of CHP+23 mg of zinc, capsule once a day, From Week 0 to Week 12
  body weight, Change Value, Average: -0.73 kg
[2]; all patient groups receiving CHP (3, 9, 15 mg+23 mg of zinc), 12 weeks
  weight gain compared to the control: less than the control, or the body weight was reduced
[3]; [5]
  body mass index (BMI), Change Value, Average: −0.27 kg/m^2
[3]; [6]
  body mass index (BMI), Change Value, Average: 0.16 kg/m^2
[3]; [7]
  body mass index (BMI), Change Value, Average: −0.28 kg/m^2
[4]
  plasma leptin level, Change Value, Average: 0.59
